One test deals with T1, recombinant human Casp2 (Homo sapiens, UniProt P42575).
T1 sequence (P42575 170-325 limits assumed): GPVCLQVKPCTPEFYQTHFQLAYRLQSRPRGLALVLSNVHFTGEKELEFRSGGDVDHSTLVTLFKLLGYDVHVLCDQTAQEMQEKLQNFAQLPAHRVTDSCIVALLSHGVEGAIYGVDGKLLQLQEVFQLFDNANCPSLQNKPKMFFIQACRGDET
T1 sequence (P42575 348-452 limits assumed): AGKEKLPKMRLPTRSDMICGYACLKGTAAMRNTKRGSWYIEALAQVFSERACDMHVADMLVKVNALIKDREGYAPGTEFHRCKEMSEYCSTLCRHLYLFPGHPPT
Put plainly: Enzyme mechanistic studies (Ki, k3, k3/KI), Caspase-2. The format is biochemical. The protocol: (§1) For reversible inhibitors, the mechanisms of inhibition were determined by varying substrate and inhibitor concentrations and using Lineweaver−Burk representations to determine the inhibition constants Ki of competitive inhibitors (Ki = [E][I]/[EI]). For suicide inhibitors, inactivation can be represented by the minimum kinetic scheme (Eq. 2), where E and I are the free forms of enzyme and inhibitor, E * I a kinetic chimera of the Michaelis complex and E − I the covalent complex (inactivated enzyme).2 E+I⇄KIE*I→k3E−I
(§2) KI and k3 are the kinetic constants characterizing the inactivation process and the k3/KI ratio is an index of the inhibitory potency. The first-order rate constant, k3, and the apparent dissociation constant, KI, were determined for Caspase-2 and -3 using the progress curve method. Briefly, the enzyme activities were measured continuously for 120 min. To determine the kinetic parameters, progress curves were obtained at several inhibition concentrations using fixed substrate concentration. The product released for each inhibitor concentration was plotted versus the time following Eq. 3 where the constant π depended on [I]’, a modified inhibitor concentration due to substrate competition, according to Eq. 4. [I]’ is defined by Eq. 5, where KM was Michaelis constant for the enzymatic hydrolysis of the appropriate fluorogenic substrate. The ratio k3/KI was obtained by fitting the experimental data to the equations (F.U., fluorescence unit):3 F.U.=∫0tvidt+F.U0−vo×e^−π×t/π+F.U.0 4 π=k3×[I]^′/KI+[I]^′ 5 [I]^′=[I]/1+S/KM
Linear and nonlinear regression fits of the experimental data to the equations were performed with KaleidaGraph software. The experimental conditions were [Caspase-2]0 = 0.2 nM, [Ac-VDVAD-AMC]0 = 25 µM and [Caspase-3]0 = 0.1 nM, [Ac-DEVD-AMC]0 = 10 µM; [I]0 = 0–100 µM.

Another test deals with T2, recombinant human Casp3 (Homo sapiens, UniProt P42574).
T2 sequence (P42574 29-175 limits assumed): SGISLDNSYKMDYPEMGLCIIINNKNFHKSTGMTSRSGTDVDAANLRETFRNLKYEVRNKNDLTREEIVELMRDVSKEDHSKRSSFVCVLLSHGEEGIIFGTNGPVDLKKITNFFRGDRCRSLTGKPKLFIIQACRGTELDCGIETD
T2 sequence (P42574 176-277 limits assumed): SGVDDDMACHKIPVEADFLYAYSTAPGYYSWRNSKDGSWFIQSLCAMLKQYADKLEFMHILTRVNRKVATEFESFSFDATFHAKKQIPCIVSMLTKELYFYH
Put plainly: Enzyme mechanistic studies (Ki, k3, k3/KI), Caspase-3. Type of test: biochemical. The following applies: irreversible inhibitors, progress curve method. The protocol:
as §1, §2
Linear and nonlinear regression fits of the experimental data to the equations were performed with KaleidaGraph software.

For test [1], the system named is Molt4 lymphoid human cells. Put plainly: Panobistat (LBH589)-induced cell death in Molt4 cells (propidium iodide, flow cytometry). The format is cell-based. The following applies: Molt4, 1 h pretreatment (30 µM or indicated doses), 25 nM LBH589 24 h. On the procedure: HeLa cells (obtained from ATCC) were cultured in Dulbecco’s Modified Eagle Medium (DMEM, High Glucose, GlutaMAX™, Pyruvate) supplemented with antibiotics and 10% fetal calf serum (FCS) (Gibco, Life Technologies) and maintained in T75 Flasks at 1 × 10^6 cells per flask. Twenty-four hours before treatments, HeLa cells were transferred to 6-well plates (8 × 10^4 cells/well). The lymphoblastoid cell line Molt4cl8 was a gift from Dr. Bernard Krust (Inserm, University Paris 5) and was cultured in RPMI 1640 Glutamax medium supplemented with Hepes, antibiotics, and 10% FCS. HEK293 cells were obtained from ATCC (CRL-1573) and cultured in DMEM with Glutamax and 25 mM glucose (Life Technologies) supplemented with 10% FCS and antibiotics. For cell death induction, the following agents were added to cell cultures: Vincristine (Sigma) and Panobistat (LBH589; Selleck). Cell death was analyzed using fluorescence microscopy (Axio-observer Z1, Zeiss; equipped with CCD camera CoolsnapHQ2, Ropert Scientific) and cytofluorometry (MACSQuant® VYB; Miltenyi Biotec, Bergisch Gladbach, Germany) after labeling with propidium iodide (1 µg/mL; 10 min; 37 °C; Life Technologies) and Hoechst 33342 (1 µg/mL; 5 min; RT; Sigma).
Fig. 5 LJ2 inhibits cell death induced by microtubule destabilization and hydroxamic acid-based deacetylase (HDAC) inhibition. a Effect of the irreversible Caspase-2 inhibitors LJ2 against vincristine-induced cell death. HeLa cells were pretreated for 1 h with the indicated doses of LJ2, Q-VD-OPh, or Q-LETD-OPh, then treated with vincristine (VCR) as in Fig. 2, then incubated with propidium iodide at 2 μg/mL for 10 min and analyzed by flow cytometry. […] Molt4 lymphoid human cells where were pretreated for 1 h with 30 µM of LJ2, Q-VD-OPh, or Belnacasan (VX-765), then treated for 24 h with 25 nM of LBH589, then incubated with propidium iodide as in (a) and analyzed by flow cytometry. […] Molt4 cells were treated as in (b) with the indicated doses of LJ2 or Q-VD-OPh and analyzed by flow cytometry. […]
A general note: Flow cytometry measures light scatter and fluorescence of single cells or particles in a stream.

Setting [2] is: irreversible inhibitors, progress curve method.

Values joined by “and” are separate entries in the source; they are usually repeats but may differ in a detail not shown here. Equal values may be shown once. Non-standard residues stand in square brackets, D forms with d. Residues, ends and D or L forms follow the SMILES beside them. ξ: configuration not given here. *: point of attachment. ξTHIQ1CO(6-Me) = Cc1ccc2c(c1)CCNC2C(=O)O; X1 = O=C(O)CC(N*)C(=O)COc1c(F)cccc1F; Quinaldoyl = O=C(c1ccc2ccccc2n1)*

With `CC(C)[C@H](NC(=O)c1ccc2ccccc2n1)C(=O)N[C@@H](CC(=O)O)C(=O)N[C@H](C(=O)N1CC[C@H](CC(C)(C)C)[C@@H]1C(=O)NC(CC(=O)O)C(=O)COc1c(F)cccc1F)C(C)C` (stereo partly drawn) [LJ3a], on recombinant human Casp2, the “selectivity: inactivation rate (k3/Ki) on Casp2 as compared to Casp3” value was ~1000 times and 946 times. At recombinant human Casp2 (setting [2]), the “Casp2 k3” value was 5 ± 7 × 10^−4 ms^−1 and the “Casp2 k3/KI” value is on record as 1,708,996 M^−1 s^−1. Also, the Ki on recombinant human Casp2 (irreversible inhibitors, progress curve method, read-out: Casp2 KI) worked out at 2.8 ± 0.8 nM. Further, at recombinant human Casp3, the “Casp3 k3” value is 0.7 ± 9 × 10^−5 ms^−1 and the “Casp3 k3/KI” value worked out at 1807 M⁻¹ s⁻¹. Besides, the Ki on recombinant human Casp3 (read-out: Casp3 KI) worked out at 400 ± 93.3 nM.

As for `Cc1ccc2c(c1)CCN(C(=O)[C@@H](NC(=O)[C@H](CC(=O)O)NC(=O)[C@@H](NC(=O)c1ccc3ccccc3n1)C(C)C)C(C)C)C2C(=O)NC(CC(=O)O)C(=O)COc1c(F)cccc1F` (stereo partly drawn) [LJ2, Quinolin-2-carbonyl-VDV-(methyl-isoquinolyl)-D-CH2-O(2,6F2)Ph] (Quinaldoyl-VDV[ξTHIQ1CO(6-Me)]-X1), at recombinant human Casp2, the “selectivity: inactivation rate (k3/Ki) on Casp2 as compared to Casp3” value was 25 times and ~ 25 times. In addition, at recombinant human Casp2 (setting [2]), the “Casp2 k3” value is 4,91 ms^−1; the “Casp2 k3/KI” value was ~ 1,322,875 M^−1 s^−1 and 1 322 875 M^−1 s^−1 and ~ 1,300,000 M^−1 s^−1; the KI (inactivation) was found to be 3.68 nM. Also, at recombinant human Casp3, the “Casp3 k3” value is recorded as 2,37 ms^−1; the “Casp3 k3/KI” value is 51,992 M^−1 s^−1 and 51 992 M^−1 s^−1; the KI (inactivation) stood at 47 nM. The “effect against Panobistat (LBH589)-induced cell death” value in test [1] is “dose-dependent inhibition of cell death”.

These data come from publication PMC9666555, “Genuine selective caspase-2 inhibition with new irreversible small peptidomimetics” (Cell Death & Disease, 2022).
